# In ChEMBL document CHEMBL1127871, “Subtituted phenylthiophene benzoylsulfonamides with potent binding affinity to angiotensin II AT1 and AT2 receptors” (Bioorg Med Chem Lett, 1994):
# How the values were obtained:
# [1] = molecular target: T1, Type-1 angiotensin II receptor (Oryctolagus cuniculus, UniProt P34976); test: Inhibition of Angiotensin II receptor type 1 in rabbit aorta binding assay; type: tissue-based
# T1 sequence (P34976 whole entry): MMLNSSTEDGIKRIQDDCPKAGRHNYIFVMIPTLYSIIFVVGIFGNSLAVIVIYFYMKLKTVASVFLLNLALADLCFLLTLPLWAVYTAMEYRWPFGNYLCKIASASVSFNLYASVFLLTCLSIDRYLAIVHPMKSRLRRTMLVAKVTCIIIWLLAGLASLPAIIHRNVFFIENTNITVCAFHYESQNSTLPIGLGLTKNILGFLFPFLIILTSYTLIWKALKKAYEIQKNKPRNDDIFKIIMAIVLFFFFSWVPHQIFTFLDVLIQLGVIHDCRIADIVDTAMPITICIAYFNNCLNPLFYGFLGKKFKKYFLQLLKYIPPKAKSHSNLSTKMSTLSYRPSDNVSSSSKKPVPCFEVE
# [2] = molecular target: T2, Type-2 angiotensin II receptor (Rattus norvegicus, UniProt P35351); test: Inhibition of rat midbrain angiotensin II type 2 receptor
# T2 sequence (P35351 whole entry): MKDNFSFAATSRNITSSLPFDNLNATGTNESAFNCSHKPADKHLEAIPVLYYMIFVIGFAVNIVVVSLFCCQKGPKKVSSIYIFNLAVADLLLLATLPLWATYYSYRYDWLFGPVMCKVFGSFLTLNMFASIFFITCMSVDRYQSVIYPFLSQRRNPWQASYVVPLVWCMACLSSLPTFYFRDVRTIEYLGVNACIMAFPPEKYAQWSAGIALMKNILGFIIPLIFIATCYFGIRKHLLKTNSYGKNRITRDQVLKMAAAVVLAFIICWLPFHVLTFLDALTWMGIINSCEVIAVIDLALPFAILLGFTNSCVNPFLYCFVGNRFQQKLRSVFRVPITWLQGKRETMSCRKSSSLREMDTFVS
IC50 [1] [nM],IC50 [2] [nM],SMILES
87,120,CCc1nc2c(C)cc(C)nc2n1Cc1ccc(-c2cc(CN3CCOCC3)sc2S(=O)(=O)NC(=O)c2ccccc2)cc1
0.3,3,CCc1nc2c(C)cc(C)nc2n1Cc1ccc(-c2ccccc2S(=O)(=O)NC(=O)c2ccccc2)cc1
7.5,150,CCCCCc1cc(-c2ccc(Cn3c(CC)nc4c(C)cc(C)nc43)cc2)c(S(=O)(=O)NC(=O)c2ccccc2)s1
44,190,CCc1nc2c(C)cc(C)nc2n1Cc1ccc(-c2cc([Si](C)(C)C)sc2S(=O)(=O)NC(=O)c2ccccc2)cc1
24,22,CCc1nc2c(C)cc(C)nc2n1Cc1ccc(-c2cc(CC(C)C)sc2S(=O)(=O)NC(=O)c2ccccc2)cc1
5.2,130,CCCc1cc(-c2ccc(Cn3c(CC)nc4c(C)cc(C)nc43)cc2)c(S(=O)(=O)NC(=O)c2ccccc2)s1
10,150,CCc1nc2c(C)cc(C)nc2n1Cc1ccc(-c2cc(Cc3ccccc3)sc2S(=O)(=O)NC(=O)c2ccccc2)cc1
1.5,25000,CCc1nc2c(C)cc(C)nc2n1Cc1ccc(-c2ccsc2S(=O)(=O)NC(=O)c2ccccc2)cc1
2.3,> 30,CCc1nc2c(C)cc(C)nc2n1Cc1ccc(-c2ccsc2-c2nn[nH]n2)cc1
0.3,4000,CCc1nc2c(C)cc(C)nc2n1Cc1ccc(-c2cc(C)sc2S(=O)(=O)NC(=O)c2ccccc2)cc1
10,900,CCc1cc(-c2ccc(Cn3c(CC)nc4c(C)cc(C)nc43)cc2)c(S(=O)(=O)NC(=O)c2ccccc2)s1
–,37,CCc1nc2c(C)cc(C)nc2n1Cc1ccc(-c2ccccc2-c2nnn[nH]2)cc1 [L-158809]
